The text below walks through data of patent US10526581B2, “Modulation of cardiac stem-progenitor cell differentiation, assays and uses thereof” (priority 2013, dated 2020).

In this experiment the test system is Nestin^pos progenitor cells from clonal-derived c-kit^pos eCSCs. Nature of the experiment: neurogenic differentiation of Nestin^pos cells from clonal c-kit^pos eCSCs. The format is cell-based, rat. As to conditions: differentiation medium, 7 days. The source says:
It has been previously shown that cardiac side population cells that express the neural progenitor marker, Nestin, can be induced to differentiate into the ectoderm layer, producing neurons and glial cells (15). We then purified for a population of Nestin^pos progenitor cells from clonal-derived c-kit^pos eCSCs. When placed into differentiation medium supplemented with Retinoic Acid or LIF for 7 days, we found up-regulation of GFAP, MATH2/NeuroD6, a neuron specific transcription factor (FIG. 3C), β-3 tubulin arrayed in filaments and bundles (FIG. 3C), neuron-specific enolase (FIG. 3C), acetylcholintransferase (FIG. 3C), doublecortin (DCX), and S-100β (FIG. 3C). Furthermore, after RA differentiation, cells had characteristics of neuronal dendrites, indicating a morphological change that resembled neurons (FIG. 3C).

As to “LIF: supplement of the neural differentiation medium”, the “expression of neural markers (GFAP, MATH2/NeuroD6, β-3 tubulin and others)” value is reported as “up-regulation”.
